Values quoted from earlier work, collected in paper PMC10928227, “Assessing biologic/toxicologic effects of extractables from plastic contact materials for advanced therapy manufacturing using cell painting assay and cytotoxicity screening” (Scientific Reports, 2024).
Like-named read-outs stand apart in the source and are kept apart here.

Key:
[1] = cited from earlier work
[2] = cited from earlier work; remark: listed apart in the source
[3] = Database Genotoxicity & Carcinogenicity ECVAM, ref EURL ECVAM genotoxicity and carcinogencity database, Madia F et al, 2020
[4] = in Vivo, Database Genotoxicity & Carcinogenicity ECVAM, ref EURL ECVAM genotoxicity and carcinogencity database, Madia F et al, 2020
[5] = Salmonella typhimurium, Strain TA 97, in Vitro, Database: Bacterial mutagenicity ISSSTY, ref CCRIS database,Toxnet databases (Romualdo Benigni)
[6] = Salmonella typhimurium, Strain TA 98, in Vitro, Database: Bacterial mutagenicity ISSSTY, ref CCRIS database,Toxnet databases (Romualdo Benigni)
[7] = Salmonella typhimurium, Strain TA 98, in Vitro, Database: Genotoxicity OASIS, ref P&G
[8] = Salmonella typhimurium, Strain TA 100, in Vitro, Database: Bacterial mutagenicity ISSSTY, ref CCRIS database,Toxnet databases (Romualdo Benigni)
[9] = Salmonella typhimurium, Strain TA 100, in Vitro, Database: Genotoxicity OASIS, ref P&G
[10] = Salmonella typhimurium, Strain TA 102, in Vitro, Database: Bacterial mutagenicity ISSSTY, ref CCRIS database,Toxnet databases (Romualdo Benigni)
[11] = Salmonella typhimurium, Strain TA 1535, in Vitro, Database: Bacterial mutagenicity ISSSTY, ref CCRIS database,Toxnet databases (Romualdo Benigni)
[12] = Salmonella typhimurium, Strain TA 1535, in Vitro, Database: Genotoxicity OASIS, ref P&G
[13] = Salmonella typhimurium, Strain TA 1537, in Vitro, Database: Bacterial mutagenicity ISSSTY, ref CCRIS database,Toxnet databases (Romualdo Benigni)
[14] = Salmonella typhimurium, Strain TA 1537, in Vitro, Database: Genotoxicity OASIS, ref P&G
[15] = in Vitro, Chinese hamster, Chinese Hamster Lung (CHL), Duration 6÷18 h, Database Genotoxicity OASIS, ref Sofuni, T., Ed. (1998). Data Book of Chromosomal Aberration Test In Vitro, Revised Edition
[16] = in Vitro, Database Genotoxicity & Carcinogenicity ECVAM, ref EURL ECVAM genotoxicity and carcinogencity database, Madia F et al, 2020
[17] = in Vitro, Salmonella typhimurium, Strain TA 97, Database Genotoxicity OASIS, ref P&G
[18] = in Vitro, Salmonella typhimurium, Strain TA 98, Database Genotoxicity OASIS, ref P&G
[19] = in Vitro, Salmonella typhimurium, Strain TA 100, Database Genotoxicity OASIS, ref P&G
[20] = in Vitro, Salmonella typhimurium, Strain TA 102, OECD Guideline 471, Database Genotoxicity OASIS, ref CCRIS database,Toxnet databases
[21] = in Vitro, Salmonella typhimurium, Strain TA 1535, Database Genotoxicity OASIS, ref P&G
[22] = in Vitro, Salmonella typhimurium, Strain TA 1537, Database Genotoxicity OASIS, ref P&G
[23] = in Vitro, Salmonella typhimurium, Strain TA 1538, Database Genotoxicity OASIS, ref P&G
[24] = in Vitro, Salmonella typhimurium, No Strain Information, Database Genotoxicity OASIS, ref Journal of Medicinal Chemistry 48 (1), pp. 312-32, 25, Kazius J, McGuire R., Bursi R

## Nc1ccccc1 [62-53-3]
[1]; [3]
  Chromosome aberration, in Vivo Mammalian Chromosome Aberration Test: Positive
[1]; [4]
  Chromosome aberration, Micronucleus Assay: Positive
  DNA damage and repair, COMET or Alkaline Elution: Positive
[1]; in Vivo, Database Genotoxicity OASIS, ref RESS, NB. et. al., MUTAT. RES. 521(1-2):201-208, 2002
  Chromosome aberration, Micronucleus Assay: Positive
[1]; in Vivo, Database Genotoxicity OASIS, ref Yu F. Sasaki et. al., 2000, Critical Reviews in Toxicology,30(6),Pp.629-799
  DNA damage and repair, Single Cell Gel Electrophoresis (comet) Assay: Positive
[2]; Mammalian cell line, test guideline not reported, scale Gene mutation I, ref Database: Food TOX Hazard EFSA
  Genetic Toxicity, Genotoxicity: Positive
[2]; [5]
  Gene mutation, Bacterial Reverse Mutation Assay (e.g. Ames Test): Negative
[2]; Salmonella typhimurium, Strain TA 98(NR), in Vitro, Database: Bacterial mutagenicity ISSSTY, ref CCRIS database,Toxnet databases (Romualdo Benigni)
  Gene mutation, Bacterial Reverse Mutation Assay (e.g. Ames Test): Negative
[2]; [6]
  Gene mutation, Bacterial Reverse Mutation Assay (e.g. Ames Test): Negative
[2]; Salmonella typhimurium, Strain TA 98, in Vitro, Database: Genotoxicity OASIS, ref Mutation Research, 168 (1986) 69-240, U.S. Environmental Protection Agency
  Gene mutation, Bacterial Reverse Mutation Assay (e.g. Ames Test): Negative
[2]; [7]
  Gene mutation, Bacterial Reverse Mutation Assay (e.g. Ames Test): Negative
[2]; [8]
  Gene mutation, Bacterial Reverse Mutation Assay (e.g. Ames Test): Negative
[2]; Salmonella typhimurium, Strain TA 100, in Vitro, Database: Genotoxicity OASIS, ref Mutation Research, 168 (1986) 69-240, U.S. Environmental Protection Agency
  Gene mutation, Bacterial Reverse Mutation Assay (e.g. Ames Test): Negative
[2]; [9]
  Gene mutation, Bacterial Reverse Mutation Assay (e.g. Ames Test): Negative
[2]; [10]
  Gene mutation, Bacterial Reverse Mutation Assay (e.g. Ames Test): Negative
[2]; [11]
  Gene mutation, Bacterial Reverse Mutation Assay (e.g. Ames Test): Negative
[2]; Salmonella typhimurium, Strain TA 1535, in Vitro, Database: Genotoxicity OASIS, ref Mutation Research, 168 (1986) 69-240, U.S. Environmental Protection Agency
  Gene mutation, Bacterial Reverse Mutation Assay (e.g. Ames Test): Negative
[2]; [12]
  Gene mutation, Bacterial Reverse Mutation Assay (e.g. Ames Test): Negative
[2]; [13]
  Gene mutation, Bacterial Reverse Mutation Assay (e.g. Ames Test): Negative
[2]; Salmonella typhimurium, Strain TA 1537, in Vitro, Database: Genotoxicity OASIS, ref Mutation Research, 168 (1986) 69-240, U.S. Environmental Protection Agency
  Gene mutation, Bacterial Reverse Mutation Assay (e.g. Ames Test): Negative
[2]; [14]
  Gene mutation, Bacterial Reverse Mutation Assay (e.g. Ames Test): Negative
[2]; Salmonella typhimurium, Strain TA 1538, in Vitro, Database: Bacterial mutagenicity ISSSTY, ref CCRIS database,Toxnet databases (Romualdo Benigni)
  Gene mutation, Bacterial Reverse Mutation Assay (e.g. Ames Test): Negative
[2]; [15]
  Chromosome aberration, in Vitro Mammalian Chromosome Aberration Test: Positive
[2]; [16]
  Chromosome aberration, Micronucleus Assay: Positive
  Chromosome aberration, in Vitro Mammalian Chromosome Aberration Test: Positive
  Gene mutation, Mammalian Cell Gene Mutation (MLA HPRT): Positive
[2]; in Vitro, Salmonella typhimurium and Escherichia Coli, Database Genotoxicity & Carcinogenicity ECVAM, ref EURL ECVAM genotoxicity and carcinogencity database, Madia F et al, 2020
  Gene mutation, Bacterial Reverse Mutation Assay (e.g. Ames Test): Negative
[2]; [17]
  Gene mutation, Bacterial Reverse Mutation Assay (e.g. Ames Test): Negative
[2]; in Vitro, Salmonella typhimurium, Strain TA 98, Database Genotoxicity OASIS, ref Mutation Research, 168 (1986) 69-240, U.S. Environmental Protection Agency
  Gene mutation, Bacterial Reverse Mutation Assay (e.g. Ames Test): Negative
[2]; [18]
  Gene mutation, Bacterial Reverse Mutation Assay (e.g. Ames Test): Negative
[2]; [19]
  Gene mutation, Bacterial Reverse Mutation Assay (e.g. Ames Test): Negative
[2]; [20]
  Gene mutation, Bacterial Reverse Mutation Assay (e.g. Ames Test): Negative
[2]; [21]
  Gene mutation, Bacterial Reverse Mutation Assay (e.g. Ames Test): Negative
[2]; in Vitro, Salmonella typhimurium, Strain TA 1537, Database Genotoxicity OASIS, ref Mutation Research, 168 (1986) 69-240, U.S. Environmental Protection Agency
  Gene mutation, Bacterial Reverse Mutation Assay (e.g. Ames Test): Negative
[2]; [22]
  Gene mutation, Bacterial Reverse Mutation Assay (e.g. Ames Test): Negative
[2]; [23]
  Gene mutation, Bacterial Reverse Mutation Assay (e.g. Ames Test): Negative
[2]; in Vitro, scale Mutagenicity I (ECVAM), ref EURL ECVAM genotoxicity and carcinogencity database, Madia F et al, 2020
  Genetic Toxicity, unscheduled DNA synthesis (UDS in Vitro): Negative

## CC(C)(c1ccc(O)cc1)c1ccc(O)cc1 [80-05-7]
[1]; [3]
  Chromosome aberration, in Vivo Mammalian Chromosome Aberration Test: Positive
[1]; [4]
  Chromosome aberration, Micronucleus Assay: Negative
[2]; Salmonella typhimurium, No Strain Information, in Vitro, Database: Genotoxicity OASIS, ref Mutation Research 584 (2005) 1-256, Kirkland et al.
  Gene mutation, Bacterial Reverse Mutation Assay (e.g. Ames Test): Negative
[2]; Salmonella typhimurium, Strain TA 97A, in Vitro, Database: Bacterial mutagenicity ISSSTY, ref CCRIS database,Toxnet databases (Romualdo Benigni)
  Gene mutation, Bacterial Reverse Mutation Assay (e.g. Ames Test): Negative
[2]; [6]
  Gene mutation, Bacterial Reverse Mutation Assay (e.g. Ames Test): Negative
[2]; [7]
  Gene mutation, Bacterial Reverse Mutation Assay (e.g. Ames Test): Negative
[2]; [8]
  Gene mutation, Bacterial Reverse Mutation Assay (e.g. Ames Test): Negative
[2]; [9]
  Gene mutation, Bacterial Reverse Mutation Assay (e.g. Ames Test): Negative
[2]; [10]
  Gene mutation, Bacterial Reverse Mutation Assay (e.g. Ames Test): Negative
[2]; [11]
  Gene mutation, Bacterial Reverse Mutation Assay (e.g. Ames Test): Negative
[2]; [12]
  Gene mutation, Bacterial Reverse Mutation Assay (e.g. Ames Test): Negative
[2]; [13]
  Gene mutation, Bacterial Reverse Mutation Assay (e.g. Ames Test): Negative
[2]; [14]
  Gene mutation, Bacterial Reverse Mutation Assay (e.g. Ames Test): Negative
[2]; [15]
  Chromosome aberration, in Vitro Mammalian Chromosome Aberration Test: Negative
[2]; in Vitro, Chinese hamster, Chinese Hamster Lung (CHL), Duration 24÷48 h, Database Genotoxicity OASIS, ref Sofuni, T., Ed. (1998). Data Book of Chromosomal Aberration Test In Vitro, Revised Edition
  Chromosome aberration, in Vitro Mammalian Chromosome Aberration Test: Negative
[2]; [16]
  Chromosome aberration, Micronucleus Assay: Negative
  Chromosome aberration, in Vitro Mammalian Chromosome Aberration Test: Positive
  Gene mutation, Bacterial Reverse Mutation Assay (e.g. Ames Test): Negative
  Gene mutation, Mammalian Cell Gene Mutation (MLA HPRT): Inadequate
[2]; in Vitro, No Strain Information, Database Genotoxicity OASIS, ref Mutation Research 584 (2005) 1-256, Kirkland et al.
  Chromosome aberration, in Vitro Mammalian Chromosome Aberration Test: Positive
[2]; [24]
  Gene mutation, Bacterial Reverse Mutation Assay (e.g. Ames Test): Negative
[2]; [17]
  Gene mutation, Bacterial Reverse Mutation Assay (e.g. Ames Test): Negative
[2]; [18]
  Gene mutation, Bacterial Reverse Mutation Assay (e.g. Ames Test): Negative
[2]; [19]
  Gene mutation, Bacterial Reverse Mutation Assay (e.g. Ames Test): Negative
[2]; [20]
  Gene mutation, Bacterial Reverse Mutation Assay (e.g. Ames Test): Negative
[2]; [21]
  Gene mutation, Bacterial Reverse Mutation Assay (e.g. Ames Test): Negative
[2]; [22]
  Gene mutation, Bacterial Reverse Mutation Assay (e.g. Ames Test): Negative
[2]; [23]
  Gene mutation, Bacterial Reverse Mutation Assay (e.g. Ames Test): Negative
[2]; in Vitro, T-lymphoma Cell Lines, Database Genotoxicity OASIS, ref Mutation Research 584 (2005) 1-256, Kirkland et al.
  Gene mutation, Mammalian Cell Gene Mutation Assay: Negative

## CN1CCCC1=O [872-50-4]
[2]; [5]
  Gene mutation, Bacterial Reverse Mutation Assay (e.g. Ames Test): Negative
[2]; [6]
  Gene mutation, Bacterial Reverse Mutation Assay (e.g. Ames Test): Negative
[2]; [8]
  Gene mutation, Bacterial Reverse Mutation Assay (e.g. Ames Test): Negative
[2]; [10]
  Gene mutation, Bacterial Reverse Mutation Assay (e.g. Ames Test): Negative
[2]; Salmonella typhimurium, Strain TA 104, in Vitro, Database: Bacterial mutagenicity ISSSTY, ref CCRIS database,Toxnet databases (Romualdo Benigni)
  Gene mutation, Bacterial Reverse Mutation Assay (e.g. Ames Test): Negative
[2]; Salmonella typhimurium, Strain TA 2638, in Vitro, Database: Bacterial mutagenicity ISSSTY, ref CCRIS database,Toxnet databases (Romualdo Benigni)
  Gene mutation, Bacterial Reverse Mutation Assay (e.g. Ames Test): Negative
[2]; [24]
  Gene mutation, Bacterial Reverse Mutation Assay (e.g. Ames Test): Negative
[2]; [17]
  Gene mutation, Bacterial Reverse Mutation Assay (e.g. Ames Test): Negative
[2]; [18]
  Gene mutation, Bacterial Reverse Mutation Assay (e.g. Ames Test): Negative
[2]; [19]
  Gene mutation, Bacterial Reverse Mutation Assay (e.g. Ames Test): Negative
[2]; [20]
  Gene mutation, Bacterial Reverse Mutation Assay (e.g. Ames Test): Negative
[2]; [21]
  Gene mutation, Bacterial Reverse Mutation Assay (e.g. Ames Test): Negative
[2]; [22]
  Gene mutation, Bacterial Reverse Mutation Assay (e.g. Ames Test): Negative
[2]; [23]
  Gene mutation, Bacterial Reverse Mutation Assay (e.g. Ames Test): Negative

## Cc1cc(C(C)(C)C)c(O)c(C(C)(C)C)c1 [Butylated hydroxytoluene]
[2]; not checked for in vivo relevance, ref QSAR Toolbox 4.5 database
  Risk based on in vitro genotoxicity data from database (from QSAR-toolbox): Positive in vitro data
